tested on: Dami cells; experiment: Cell death-inhibitory activity in Dami cells in serum-free medium with BSA and linoleic acid; type: cell-based, human; settings: each 1 ppm selenium added to the system; Dami cells
Source text: For screening a cell death-inhibitory activity for isolation and identification of the C-terminal fragment of selenoprotein P as described above, a culture system of Dami cells, human megakaryoblasts, with serum free culture medium supplemented with albumin was suitably used. […] With culture medium containing 0.01 to 0.5% human serum albumin, the cells grow normally but on Day 4 and henceforth all the cells are put to death abruptly. A cell death-inhibitory activity in a sample may be measured by applying the sample to this culture system.
The cells were cultured for three days and recovered for assay. The recovered cells were washed twice with SA/0.05% skimmed BSA (manufactured by SIGMA) containing 4 μM linoleic acid and suspended in the same medium at 3×10^4 cells/mL. The cell suspension was then added to a 96-well plate in each 200 μl for wells for sample addition or in each 100 μl for wells for serial dilution. To the wells for sample addition was added 2 μl sample and, after stirring, a serial dilution was made with the wells containing 100 μl cell suspension. The plate was incubated at 37° C. in CO2 incubator for 4 to 5 days followed by assessment. In this system, Dami cells will die in the wells added with samples having no activity but will survive in the wells added with samples having the activity on Day 4 and thenceforth. Thus, assessment was made with to what folds of dilution of tested samples the living cells could survive. Therefore, the higher the value in the following table, the higher a cell death-inhibitory activity.
After washing the column with about 8 mL PBS, elution was made with 0.1 M glycine, pH 2.8. The eluate fractions were neutralized with about 1/10 amount of 1 M Tris-HCl. The fraction that passed through chromatographic column and the washing fractions were pooled, concentrated with SpeedVac, and dialyzed against PBS.

Row | Molecule | Cell death-inhibitory activity (Folds of dilution)
1 | Selenoprotein P untreated: full-length selenoprotein P purified from human plasma in Example 1, M.W. around 67,000 in SDS-PAGE (protein, UniProt P49908 20-381, looked up) Selenoprotein P: ESQDQSSLCKQPPAWSIRDQDPMLNSNGSVTVVALLQASUYLCILQASKLEDLRVKLKKEGYSNISYIVVNHQGISSRLKYTHLKNKVSEHIPVYQQEENQTDVWTLLNGSKDDFLIYDRCGRLVYHLGLPFSFLTFPYVEEAIKIAYCEKKCGNCSLTTLKDEDFCKRVSLATVDKTVETPSPHYHHEHHHNHGHQHLGSSELSENQQPGAPNAPTHPAPPGLHHHHKHKGQHRQGHPENRDMPASEDLQDLQKKLCRKRCINQLLCKLPTDSELAPRSUCCHCRHLIFEKTGSAITUQCKENLPSLCSUQGLRAEENITESCQURLPPAAUQISQQLIPTEASASURUKNQAKKUEUPSN | 5000 Folds of dilution

same assay, conditions: selenoprotein P digested with 1/10 weight of enzyme, 37° C., 24 hours; 2 μl sample serially diluted; Dami cell survival at 4 to 5 days

Row | Molecule | Cell death-inhibitory activity (Folds of dilution)
2 | Activated protein C | 800 Folds of dilution
3 | Elastase | 600 Folds of dilution
4 | Plasmin | 600 Folds of dilution
5 | Thrombin | 600 Folds of dilution
6 | Trypsin | 600 Folds of dilution
7 | Selenoprotein P untreated: full-length selenoprotein P purified from human plasma in Example 1, M.W. around 67,000 in SDS-PAGE (protein, UniProt P49908 20-381, looked up) Selenoprotein P: ESQDQSSLCKQPPAWSIRDQDPMLNSNGSVTVVALLQASUYLCILQASKLEDLRVKLKKEGYSNISYIVVNHQGISSRLKYTHLKNKVSEHIPVYQQEENQTDVWTLLNGSKDDFLIYDRCGRLVYHLGLPFSFLTFPYVEEAIKIAYCEKKCGNCSLTTLKDEDFCKRVSLATVDKTVETPSPHYHHEHHHNHGHQHLGSSELSENQQPGAPNAPTHPAPPGLHHHHKHKGQHRQGHPENRDMPASEDLQDLQKKLCRKRCINQLLCKLPTDSELAPRSUCCHCRHLIFEKTGSAITUQCKENLPSLCSUQGLRAEENITESCQURLPPAAUQISQQLIPTEASASURUKNQAKKUEUPSN | 400 Folds of dilution

Source: US20040197852A1, “Method of preparing peptide fragment having cell death inhibitory activity” (priority 2001, published 2004)
